{"source": "paper PMC8170916", "about": "“Sublingual AKBA Exerts Antidepressant Effects in the Aβ-Treated Mouse Model” (Biomolecules, 2021)", "key": {"5-HT": {"tested_on": "5-HT", "assay": "5-HT quantification in PFC and HIPP by HPLC with electrochemical detection", "assay_type": "in vivo", "conditions": "mice 7 days after icv Aβ 4 µM, sublingual AKBA 5 mg/kg 30 min earlier", "method": "(§1) All behavioral experiments were conducted at 5 or 30 min after sublingual administrations of AKBA or vehicle in either SHAM or Aβ-treated mice. Based upon behavioral outcomes observed, neurochemical and biochemical quantifications were performed 30 min after AKBA or vehicle administration in either SHAM or Aβ-treated mice.\n(§2) Anesthetized animals were sacrificed by cervical dislocation. Brains were immediately removed and kept on ice for dissection of PFC and HIPP, according to the atlas of Paxinos and Franklin. Tissues were frozen and stored at −80 °C until analyses were carried out. Samples (PFC and HIPP) were homogenized (1:10 w/v) at 4 °C using a PBS buffer containing a 1:100 protease and phosphatase inhibitor cocktail (HALT inhibitors, Thermo Fisher Scientific, Cleveland, OH, USA) for biochemical analyses or perchloric acid 0.1 M for neurochemical analyses. Homogenates were centrifuged at 13,000× g at 4 °C for 20 min, and supernatants were used for further determinations.\n5-HT, noradrenaline (NA), and KYN levels were measured in the PFC and HIPP of mice by HPLC coupled with an electrochemical detector (Ultimate ECD, Thermo Scientific Dionex, Milan, Italy) as already reported. Separation was performed by a LC18 reverse phase column (Kinetex, 150 mm × 3.0 mm, ODS 5 μm; Phenomenex, Castel Maggiore-Bologna, Italy). The detection was accomplished by a thin layer amperometric cell (Thermo Scientific Dionex, Milan, Italy) with a 5 mm diameter glassy carbon electrode at a working potential of 400 mV (5-HT and NA) or 0.750 mV (KYN) vs. Pd. The mobile phase consisted of an aqueous buffer containing 75 mM NaH2PO4, 1.7 mM octane sulfonic acid, 0.3 mM EDTA, and acetonitrile 10%, buffered at pH 3.0. The flow rate was kept at 0.7 mL·min-1 by an isocratic pump (Shimadzu LC-10 AD, Kyoto, Japan). Data acquisition and integration were performed by using Chromeleon software (version 6.80, Thermo Scientific Dionex, Milan, Italy). GLU concentrations were determined by HPLC coupled with fluorescence detection (emission length 460 nm; excitation length 340 nm), as previously published. Analyses were carried out using an LC18 reverse phase column (Kinetex, 150 mm × 3.0 mm, ODS 5 μm; Phenomenex, Castel Maggiore, Bologna, Italy) and detection was accomplished by pre-column derivatization with ophthalaldehyde/mercaptopropionic acid. The mobile phase consisted of a 50 mM sodium acetate buffer, at pH 6.95, with gradient methanol increasing linearly from 2 to 30% (v/v) over a 40 min run. […] Results were analyzed by Borwin software (version 1.50; Jasco, Cremella, Italy) and the amino acid concentration was expressed as µM. All data were normalized for total area weight and were expressed as concentration/mg of tissue."}, "glutamate (GLU)": {"tested_on": "glutamate (GLU)", "assay": "Glutamate quantification in PFC and HIPP by HPLC with fluorescence detection", "assay_type": "in vivo", "conditions": "PFC, mice 7 days after icv Aβ 4 µM; sublingual AKBA 5 mg/kg 30 min earlier", "method": "as §1, §2\n5-HT, noradrenaline (NA), and KYN levels were measured in the PFC and HIPP of mice by HPLC coupled with an electrochemical detector (Ultimate ECD, Thermo Scientific Dionex, Milan, Italy) as already reported. Separation was performed by a LC18 reverse phase column (Kinetex, 150 mm × 3.0 mm, ODS 5 μm; Phenomenex, Castel Maggiore-Bologna, Italy). The detection was accomplished by a thin layer amperometric cell (Thermo Scientific Dionex, Milan, Italy) with a 5 mm diameter glassy carbon electrode at a working potential of 400 mV (5-HT and NA) or 0.750 mV (KYN) vs. Pd. The mobile phase consisted of an aqueous buffer containing 75 mM NaH2PO4, 1.7 mM octane sulfonic acid, 0.3 mM EDTA, and acetonitrile 10%, buffered at pH 3.0. […] GLU concentrations were determined by HPLC coupled with fluorescence detection (emission length 460 nm; excitation length 340 nm), as previously published. […] Results were analyzed by Borwin software (version 1.50; Jasco, Cremella, Italy) and the amino acid concentration was expressed as µM. All data were normalized for total area weight and were expressed as concentration/mg of tissue."}}, "data": [{"smiles": "CC(=O)O[C@@H]1CC[C@@]2(C)[C@@H](CC[C@]3(C)[C@@H]2C(=O)C=C2[C@@H]4[C@@H](C)[C@H](C)CC[C@]4(C)CC[C@]23C)[C@@]1(C)C(=O)O", "note": "[AKBA, 3-O-acetyl-11-keto-β-boswellic acid]", "values": [{"measurement": "5-HT levels in the HIPP", "setting": "5-HT; HIPP", "result": "no differences among experimental groups"}, {"measurement": "5-HT levels in the PFC", "setting": "5-HT; PFC", "result": "no effect"}, {"measurement": "GLU levels in the PFC", "setting": "glutamate (GLU)", "result": "restored those levels to control"}]}]}
